The source of these data is patent US20060121085A1, “Formulations for cell-schedule dependent anticancer agents” (priority 2003, published 2006).

Structures are written as SMILES. Like-named read-outs stand apart in the source and are kept apart here.

The conditions of data set [1]: Rat; cited from earlier work.
The conditions of data set [2]: cited from earlier work.
Data set [3] deals with mouse embryo fibroblasts. The following applies: cited from earlier work.
The conditions of data set [4]: Mouse; cited from earlier work.
For data set [5] the following is noted: mouse at 2.5 and 100 mg/kg (cleft palate, skeletal defects, limb deformities); cited from earlier work.
The conditions of data set [6]: Dog; cited from earlier work.
For data set [7] the following is noted: Rabbit; cited from earlier work.
The conditions of data set [8]: cited from earlier work. The source holds these as a separate data set.
Data set [9] relates to subcutaneous Hey (Human Ovarian Cancer) tumors. The following applies: 100 mg/kg FUDR/Saline × 2 (1 & 14 days), i.p., 20 μL.
Description: In this study, SCID mice bearing established (˜0.5 cm diameter) SC ovarian (Hey) tumors were used in this study and were randomized to equalize the tumor volume prior to initiation of drug therapy. Doses of 50 and 100 mg/kg were administered intratumorally. Floxuridine in saline at 100 mg/kg was administered by intraperitoneal injection. ATRIGEL® alone was administered in a volume equal to the 100 mg/kg group.
Mice were injected with 10×10^6 Hey (Human Ovarian Cancer) cells. When the average tumor diameter was approximately 0.5 cm, mice were divided into treatment groups such that the mean tumor volume in each group was equivalent and drug was administered. […] The volume of Floxuridine/polymer used was calculated assuming total release of drug from the polymer and a drug concentration of 0.10 mg/μL of polymer. […]
• All SCID mice used for this study were screened for IgG production and those mice producing IgG (“leaky”) were eliminated from the study group. • Mice were injected with 10×10^6 Hey cells. • When tumors achieved approximately 0.5 cm diameter, drug treatments were initiated. […] All treatments consisted of two injections (Days 1 and 14). • Mice were monitored weekly for weight, tumor size and toxicity symptoms (survival, general health, fur condition, etc.) for at least 5 weeks and the efficacy was compared

`O=c1[nH]c(=O)n([C@H]2C[C@H](O)[C@@H](CO)O2)cc1F` [FUDR, 5-fluorodeoxyuridine]: the “Lethal Intravenous Doses” value in data set [1] was 670 +/− 73; in data set [4], 880 +/− 51; in [6], 157 +/− 46; in data set [7], 94 +/− 19.6. Moreover, in [2] (female rats at 25 or 50 mg/kg), the “Reproductive Toxicant, female” value is given as “reproductive toxicity”. Further, the Teratogenicity entry in [2] (rat at 75 and 150 mg/kg (cleft palate, skeletal defects, limb deformities)) is “Teratogenic”; in [5] it was “Teratogenic”. Moreover, the “Reproductive Toxicant, male” value in data set [2] (rats at 125-250 mg/kg i.p.) is reported as “spermato-toxic”. The Mutagenicity result in [3] is “Mutagenic”. The “MTD, cumulative dose” value in data set [8] (50 mg/kg/day × 5 days) is listed as 250 mg/kg. In addition, the “maximum tolerated dose (MTD)” value in data set [8] (normal (immunocompetent) mice, intraperitoneal injection, × 5 days) is 50 mg/kg/day. For the same compound, the “Mortality (%)” value was 0% in [9] and “all surviving” in data set [9] (listed as free Floxuridine).
